Results reported in patent publication US12310946B2, “Pharmaceutical composition for oral administration of edaravone and method of administering same” (MITSUBISHI TANABE PHARMA CORPORATION, priority 2020, dated 2025).

Assay: in vitro
Conditions: human, Caco-2, pH 7.4
Protocol: Caco-2 cells were seeded on a 24-well plate, cultured at 37° C. for 21 to 23 days in a CO2 incubator, and then a Caco-2 cell monolayer membrane permeability test was conducted. After checking the membrane resistance value of the cell layer after the culture, the culture medium in the plate was replaced with HBSS (pH 7.4). […] For the control compounds, [^3H]propranolol as a high membrane permeability control and [^14C]mannitol as a low membrane permeability control were used.

Papp A→B at 2 h, 10 μmol/L	Structure (SMILES)
28.9 ± 1.1 ×10⁻⁶ cm/s	CC(C)NCC(O)COc1cccc2ccccc12 (centres unmarked) [[^3H]Propranolol, [^3H]propranolol]
0.53 ± 0.007 ×10⁻⁶ cm/s	OC[C@@H](O)[C@@H](O)[C@H](O)[C@H](O)CO [[^14C]Mannitol, [^14C]mannitol]
